Reference: patent US20240092758A1, “IMIDAZOLO INDAZOLE COMPOUNDS AS JAK INHIBITORS” (Theravance Biopharma R&D IP, LLC, priority 2021, published 2024)

Experiments:
JAK2 = JAK2 (Homo sapiens (Human), UniProt O60674); assay: Biochemical JAK kinase assay (LanthaScreen), JAK2; conditions: for Ki: read-out: JAK2 pKi (converted)
Outline: (§1)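 LanthaScreen format: phospho-STAT1 (pTyr701) detected with 2 nM Tb antibody after 10 mM EDTA quench. Kinase step used Km-level ATP and 200 nM STAT1 peptide, 1 h at ambient after 1 h pre-incubation. Inhibition fitted to IC50, reported as pKi.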

[1] = test system: IL-13 induced STAT6 phosphorylation in BEAS-2B human lung epithelial cells; assay: Cellular JAKI potency assay (BEAS-2B); assay type: cell-based; conditions: Homo sapiens, BEAS-2B, BEAS-2B cells, read-out: BEAS2B pIC50 (converted)
Outline: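 AlphaLISA SureFire detection of Tyr641 pSTAT6 in lysates gave IC50s (4-parameter fit, expressed as pIC50). Cells: human BEAS-2B, exposed 1 h at 37 °C to compound dose series at 0.1% DMSO, then 30 min to IL-13 added at 80 ng/mL in HEPES-buffered HBSS with BSA.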

TYK2 = TYK2 (Homo sapiens (Human), UniProt P29597); assay: Biochemical JAK kinase assay (LanthaScreen), Tyk2; conditions: read-out: Tyk2 pKi (converted)
Outline: as §1

JAK3 = JAK3 (Homo sapiens (Human), UniProt P52333); assay: Biochemical JAK kinase assay (LanthaScreen), JAK3; conditions: read-out: JAK3 pKi (converted)
Outline: as §1

[2] = Pharmacokinetics in plasma and lung in mouse after oral aspiration administration; assay type: in vivo; conditions: male CD1 mice; for Lung Tissue AUC(0-24) / AUC(0-t): 0.2 mg/mL, two 25 μL increments; for Lung Tissue:Plasma AUC ratio: lung AUC to plasma AUC; for AUC(0-t): mouse, inhaled or intranasal, 0.01 mg/mouse, plasma, read-out: Plasma AUC(0-24)
Description: Plasma and lung concentrations of test compounds were quantified and pharmacokinetic parameters were calculated in the following manner. Male CD1 mice from Charles River Laboratories were used in the pharmacokinetic studies. Test compounds were individually formulated in 20% propylene glycol in pH 4 citrate buffer at a concentration of 0.2 mg/mL. Test compounds were administered in two, 25 μL increments introduced into the trachea of each mouse by oral aspiration using a calibrated pipette once the animal was anesthetized using isoflurane. Blood samples were collected as terminal collections via cardiac puncture at 0.167, 1, 4, 8, and 24 hr post-dosing. Following […] with CO2, a direct cardiac puncture was performed while avoiding puncturing the lung and blood was immediately transferred into K2EDTA tubes and placed on wet ice. Blood samples were centrifuged (Eppendorf centrifuge, 5804R) for 4 minutes at approximately 12,000 rpm at 4° C. to collect plasma. Intact lungs were also excised from these mice using the same timepoints (0.167, 1, 4, 8, and 24 hr). Lungs were washed with sterile water to remove any blood residue and were patted dry, weighed, and homogenized in 0.1% formic acid in water at a dilution of 1:3 (lung:water, weight/volume). Plasma and lung concentrations of test compounds were determined by LC-MS/MS analysis against analytical standards constructed into a standard curve in the test matrix. The pharmacokinetic parameters of test compounds were determined by non-compartmental analysis. For concentrations below the limit of quantification, zero was used for mean calculations. Mean values were not reported if more than 50% of the samples were below the limit of quantification at a timepoint, or if more than 50% of a calculated pharmacokinetic parameter was not reportable. The area under the concentration-time curve extrapolated to infinity (AUC(0-inf)) was calculated as follows: AUC(0-inf)=AUC(0-t)+Clast/k, where AUC(0-t) is the area under the concentration-time curve from the time of dosing to the last measurable concentration calculated by the linear trapezoidal rule, Clast is the last measurable concentration, and k is the first order rate constant associated with the terminal elimination phase, estimated by linear regression of time versus log concentration. The lung-to-plasma AUC ratio was determined as the ratio of the lung AUC(0-inf) in μg*hr/g to the plasma AUC(0-inf) in μg*hr/mL.

JAK1 = JAK1 (Homo sapiens (Human), UniProt P23458); assay: Biochemical JAK kinase assay (LanthaScreen), JAK1; conditions: for Ki: read-out: JAK1 pKi (converted)
Outline: as §1

Sequence of JAK1 (P23458 whole entry): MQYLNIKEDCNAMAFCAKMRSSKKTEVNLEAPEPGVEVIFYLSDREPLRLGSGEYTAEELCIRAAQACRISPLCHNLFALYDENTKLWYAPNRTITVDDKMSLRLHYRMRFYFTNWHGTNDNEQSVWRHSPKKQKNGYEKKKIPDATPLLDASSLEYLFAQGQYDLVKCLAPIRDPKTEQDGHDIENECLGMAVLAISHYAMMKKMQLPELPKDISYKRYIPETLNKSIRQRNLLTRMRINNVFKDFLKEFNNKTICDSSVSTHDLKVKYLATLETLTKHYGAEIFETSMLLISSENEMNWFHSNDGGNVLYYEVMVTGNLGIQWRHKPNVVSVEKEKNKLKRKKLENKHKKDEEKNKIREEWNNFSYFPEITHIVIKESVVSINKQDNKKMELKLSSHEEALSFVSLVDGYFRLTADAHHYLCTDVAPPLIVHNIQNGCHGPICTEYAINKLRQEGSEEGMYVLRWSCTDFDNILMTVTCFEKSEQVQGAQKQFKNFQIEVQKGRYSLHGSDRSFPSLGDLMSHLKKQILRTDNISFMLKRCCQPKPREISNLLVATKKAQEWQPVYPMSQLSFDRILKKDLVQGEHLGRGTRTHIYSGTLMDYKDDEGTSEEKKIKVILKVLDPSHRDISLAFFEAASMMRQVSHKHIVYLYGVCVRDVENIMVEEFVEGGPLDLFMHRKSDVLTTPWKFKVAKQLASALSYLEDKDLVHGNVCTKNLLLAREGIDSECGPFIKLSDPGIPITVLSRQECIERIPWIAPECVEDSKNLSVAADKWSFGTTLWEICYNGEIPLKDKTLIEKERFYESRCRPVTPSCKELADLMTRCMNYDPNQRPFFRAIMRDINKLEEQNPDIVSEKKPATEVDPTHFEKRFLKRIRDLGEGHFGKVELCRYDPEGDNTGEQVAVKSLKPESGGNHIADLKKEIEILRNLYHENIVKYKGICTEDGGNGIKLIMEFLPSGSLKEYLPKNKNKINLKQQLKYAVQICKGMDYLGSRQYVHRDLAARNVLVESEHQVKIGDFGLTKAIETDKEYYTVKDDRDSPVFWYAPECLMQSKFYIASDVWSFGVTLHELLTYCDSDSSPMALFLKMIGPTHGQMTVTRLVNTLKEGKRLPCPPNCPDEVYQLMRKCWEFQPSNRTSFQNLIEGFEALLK
Sequence of JAK3 (P52333 whole entry): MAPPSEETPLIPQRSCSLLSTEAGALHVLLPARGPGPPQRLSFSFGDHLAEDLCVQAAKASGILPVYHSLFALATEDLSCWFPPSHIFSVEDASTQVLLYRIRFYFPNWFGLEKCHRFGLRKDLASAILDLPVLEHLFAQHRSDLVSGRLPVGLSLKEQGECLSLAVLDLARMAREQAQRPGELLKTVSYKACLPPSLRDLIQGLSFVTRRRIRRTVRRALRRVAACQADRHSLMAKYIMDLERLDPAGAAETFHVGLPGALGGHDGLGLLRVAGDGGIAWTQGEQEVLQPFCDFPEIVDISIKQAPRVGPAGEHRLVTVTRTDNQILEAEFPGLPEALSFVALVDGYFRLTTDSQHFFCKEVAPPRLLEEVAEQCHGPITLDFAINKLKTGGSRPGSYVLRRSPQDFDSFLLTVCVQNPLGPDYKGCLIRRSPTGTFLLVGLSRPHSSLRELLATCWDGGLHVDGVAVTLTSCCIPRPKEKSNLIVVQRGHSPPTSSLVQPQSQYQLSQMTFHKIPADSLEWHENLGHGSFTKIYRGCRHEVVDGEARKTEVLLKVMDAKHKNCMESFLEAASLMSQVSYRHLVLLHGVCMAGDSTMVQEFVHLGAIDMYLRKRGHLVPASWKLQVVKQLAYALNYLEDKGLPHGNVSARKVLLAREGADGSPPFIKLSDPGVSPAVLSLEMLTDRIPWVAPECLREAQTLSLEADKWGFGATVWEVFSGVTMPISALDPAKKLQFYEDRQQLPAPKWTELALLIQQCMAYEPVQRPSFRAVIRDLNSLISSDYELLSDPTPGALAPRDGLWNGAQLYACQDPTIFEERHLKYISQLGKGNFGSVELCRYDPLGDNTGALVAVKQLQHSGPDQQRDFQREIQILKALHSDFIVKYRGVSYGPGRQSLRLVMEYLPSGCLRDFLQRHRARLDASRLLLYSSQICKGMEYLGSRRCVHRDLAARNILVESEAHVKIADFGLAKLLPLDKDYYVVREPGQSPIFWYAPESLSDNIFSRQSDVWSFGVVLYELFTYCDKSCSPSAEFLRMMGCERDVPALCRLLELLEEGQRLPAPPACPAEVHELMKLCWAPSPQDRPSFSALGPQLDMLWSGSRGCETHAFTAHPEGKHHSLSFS
Sequence of TYK2 (P29597 whole entry): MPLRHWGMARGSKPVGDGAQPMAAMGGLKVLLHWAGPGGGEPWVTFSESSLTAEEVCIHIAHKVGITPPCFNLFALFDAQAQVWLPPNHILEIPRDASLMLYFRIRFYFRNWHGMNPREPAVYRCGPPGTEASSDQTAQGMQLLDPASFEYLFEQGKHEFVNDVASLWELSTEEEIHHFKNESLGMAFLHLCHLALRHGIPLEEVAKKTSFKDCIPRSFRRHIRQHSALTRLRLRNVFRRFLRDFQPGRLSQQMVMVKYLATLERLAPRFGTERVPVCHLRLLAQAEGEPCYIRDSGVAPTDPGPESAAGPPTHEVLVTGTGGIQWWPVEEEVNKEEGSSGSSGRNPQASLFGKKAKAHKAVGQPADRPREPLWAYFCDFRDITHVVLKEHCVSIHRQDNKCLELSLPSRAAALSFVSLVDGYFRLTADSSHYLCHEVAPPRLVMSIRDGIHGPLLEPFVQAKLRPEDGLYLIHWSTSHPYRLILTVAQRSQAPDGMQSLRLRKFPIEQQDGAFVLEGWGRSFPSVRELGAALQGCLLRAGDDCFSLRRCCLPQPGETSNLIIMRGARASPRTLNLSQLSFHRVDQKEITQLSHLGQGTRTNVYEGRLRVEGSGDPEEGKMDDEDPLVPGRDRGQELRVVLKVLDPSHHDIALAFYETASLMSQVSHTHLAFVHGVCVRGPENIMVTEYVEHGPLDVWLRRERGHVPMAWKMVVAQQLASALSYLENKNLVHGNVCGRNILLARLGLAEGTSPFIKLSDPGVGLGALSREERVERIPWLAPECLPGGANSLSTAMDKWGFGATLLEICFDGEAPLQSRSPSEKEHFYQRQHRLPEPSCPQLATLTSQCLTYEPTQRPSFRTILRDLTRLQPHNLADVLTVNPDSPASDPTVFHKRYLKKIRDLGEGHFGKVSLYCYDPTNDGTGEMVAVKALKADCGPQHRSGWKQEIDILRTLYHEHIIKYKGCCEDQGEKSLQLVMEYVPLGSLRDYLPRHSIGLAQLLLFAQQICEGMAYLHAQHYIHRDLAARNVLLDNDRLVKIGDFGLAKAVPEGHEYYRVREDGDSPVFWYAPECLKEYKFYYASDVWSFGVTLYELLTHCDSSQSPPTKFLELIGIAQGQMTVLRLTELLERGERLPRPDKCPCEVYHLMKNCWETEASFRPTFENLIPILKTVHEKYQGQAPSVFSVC
Sequence of JAK2 (O60674 whole entry): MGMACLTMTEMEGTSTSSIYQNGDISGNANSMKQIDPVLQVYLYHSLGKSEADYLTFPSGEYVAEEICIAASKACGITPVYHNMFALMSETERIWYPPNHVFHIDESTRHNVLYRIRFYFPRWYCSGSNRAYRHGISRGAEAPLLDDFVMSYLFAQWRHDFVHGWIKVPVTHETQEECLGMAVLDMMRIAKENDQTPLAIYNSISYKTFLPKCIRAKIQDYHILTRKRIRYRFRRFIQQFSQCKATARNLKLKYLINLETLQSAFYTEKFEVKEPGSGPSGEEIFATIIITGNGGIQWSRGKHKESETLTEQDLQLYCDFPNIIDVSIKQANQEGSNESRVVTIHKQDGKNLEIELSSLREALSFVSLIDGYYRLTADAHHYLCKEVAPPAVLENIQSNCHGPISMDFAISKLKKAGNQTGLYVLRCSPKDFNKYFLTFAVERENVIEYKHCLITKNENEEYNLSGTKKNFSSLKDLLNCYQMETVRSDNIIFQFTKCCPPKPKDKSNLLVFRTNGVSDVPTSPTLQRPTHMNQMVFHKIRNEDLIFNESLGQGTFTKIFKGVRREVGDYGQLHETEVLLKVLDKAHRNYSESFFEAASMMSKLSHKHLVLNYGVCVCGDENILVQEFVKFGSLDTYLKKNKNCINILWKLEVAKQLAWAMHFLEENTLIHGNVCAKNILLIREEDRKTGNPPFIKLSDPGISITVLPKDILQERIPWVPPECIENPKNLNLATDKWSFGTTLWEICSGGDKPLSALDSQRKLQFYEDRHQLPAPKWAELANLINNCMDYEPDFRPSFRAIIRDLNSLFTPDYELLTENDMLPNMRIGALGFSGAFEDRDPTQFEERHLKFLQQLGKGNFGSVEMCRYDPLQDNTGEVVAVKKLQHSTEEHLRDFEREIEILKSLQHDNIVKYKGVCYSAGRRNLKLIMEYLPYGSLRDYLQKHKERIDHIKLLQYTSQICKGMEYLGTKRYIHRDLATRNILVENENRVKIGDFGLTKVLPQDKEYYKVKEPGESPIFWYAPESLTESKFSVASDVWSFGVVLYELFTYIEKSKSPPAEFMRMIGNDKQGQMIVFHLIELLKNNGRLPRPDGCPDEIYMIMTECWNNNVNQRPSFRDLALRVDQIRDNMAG

CCc1cc(O)ccc1-c1ccc2c(-c3nc(C4=CCCNC4)c[nH]3)n[nH]c2c1 [Compound 4, 3-ethyl-4-(3-(4-(1,2,5,6-tetrahydropyridin-3-yl)-1H-imidazol-2-yl)-1H-indazol-6-yl)phenol]
Ki (JAK2): 0.1 to 1 nM | IC50 [1]: 3.16 to 10 nM | Ki (TYK2): 1 to 10 nM | Ki (JAK3): 0.1 to 1 nM | Lung Tissue AUC(0-24) [2]: B (B denotes a value between 50 and 100) | Lung Tissue:Plasma AUC ratio [2]: C (C denotes a ratio between 100 and 200) | AUC(0-t) [2]: 500 to 1000 ng·h/mL | Ki (JAK1): 0.1 to 1 nM

CCc1cc(O)ccc1-c1ccc2c(-c3nc(C4=CCNC4)c[nH]3)n[nH]c2c1 [Compound 5, 4-(3-(4-(2,5-dihydro-1H-pyrrol-3-yl)-1H-imidazol-2-yl)-1H-indazol-6-yl)-3-ethylphenol]
Ki (JAK2): 0.1 to 1 nM | IC50 [1]: 3.16 to 10 nM | Ki (TYK2): 0.1 to 1 nM | Ki (JAK3): 0.1 to 1 nM | Lung Tissue AUC(0-24) [2]: C (C denotes a value between 9 and 50) | Lung Tissue:Plasma AUC ratio [2]: D (D denotes a ratio between 50 and 100) | AUC(0-t) [2]: < 500 ng·h/mL | JAK1 pKi (JAK1): A (A represents a pKi value ≥10 (Ki≤0.1 nM))

CCc1cc(O)ccc1-c1ccc2c(-c3nc(C4=CCCNC4)c[nH]3)n[nH]c2c1F [Compound 6, 3-ethyl-4-(7-fluoro-3-(4-(1,2,5,6-tetrahydropyridin-3-yl)-1H-imidazol-2-yl)-1H-indazol-6-yl)phenol]
Ki (JAK2): 0.1 to 1 nM | IC50 [1]: 3.16 to 10 nM | Ki (TYK2): 1 to 10 nM | Ki (JAK3): 1 to 10 nM | Lung Tissue AUC(0-24) [2]: B (B denotes a value between 50 and 100) | Lung Tissue:Plasma AUC ratio [2]: D (D denotes a ratio between 50 and 100) | AUC(0-t) [2]: 500 to 1000 ng·h/mL | Ki (JAK1): 0.1 to 1 nM

CCc1cc(O)ccc1-c1ccc2c(-c3nc(C4=CC5COCC(C4)N5)c[nH]3)n[nH]c2c1 (stereo not shown) [Compound 7, 4-(3-(4-(3-oxa-9-azabicyclo[3.3.1]non-6-en-7-yl)-1H-imidazol-2-yl)-1H-indazol-6-yl)-3-ethylphenol]
JAK2 pKi (JAK2): A (A represents a pKi value ≥10 (Ki≤0.1 nM)) | IC50 [1]: 10 to 31.6 nM | Ki (TYK2): 1 to 10 nM | Ki (JAK3): 0.1 to 1 nM | Lung Tissue AUC(0-24) [2]: B (B denotes a value between 50 and 100) | Lung Tissue:Plasma AUC ratio [2]: C (C denotes a ratio between 100 and 200) | AUC(0-t) [2]: < 500 ng·h/mL | Ki (JAK1): 0.1 to 1 nM

CCc1cc(O)ccc1-c1ccc2c(-c3nc(C4=C[C@H](CO)NC4)c[nH]3)n[nH]c2c1F [Compound 8, (R)-3-ethyl-4-(7-fluoro-3-(4-(5-(hydroxymethyl)-2,5-dihydro-1H-pyrrol-3-yl)-1H-imidazol-2-yl)-1H-indazol-6-yl)phenol]
JAK2 pKi (JAK2): A (A represents a pKi value ≥10 (Ki≤0.1 nM)) | IC50 [1]: 10 to 31.6 nM | Ki (TYK2): 1 to 10 nM | Ki (JAK3): 0.1 to 1 nM | Lung Tissue AUC(0-24) [2]: B (B denotes a value between 50 and 100) | Lung Tissue:Plasma AUC ratio [2]: C (C denotes a ratio between 100 and 200) | AUC(0-t) [2]: 500 to 1000 ng·h/mL | Ki (JAK1): 0.1 to 1 nM

CCc1cc(O)ccc1-c1ccc2c(-c3nc(C4=C[C@H](COC)NC4)c[nH]3)n[nH]c2c1F [Compound 9, (R)-3-ethyl-4-(7-fluoro-3-(4-(5-(methoxymethyl)-2,5-dihydro-1H-pyrrol-3-yl)-1H-imidazol-2-yl)-1H-indazol-6-yl)phenol]
Ki (JAK2): 0.1 to 1 nM | IC50 [1]: 3.16 to 10 nM | Ki (TYK2): 10 to 100 nM | Ki (JAK3): 0.1 to 1 nM | Lung Tissue AUC(0-24) [2]: C (C denotes a value between 9 and 50) | Lung Tissue:Plasma AUC ratio [2]: C (C denotes a ratio between 100 and 200) | AUC(0-t) [2]: < 500 ng·h/mL | JAK1 pKi (JAK1): A (A represents a pKi value ≥10 (Ki≤0.1 nM))

CCc1cc(O)ccc1-c1ccc2c(-c3nc(C4=CCN(CCCO)CC4)c[nH]3)n[nH]c2c1F [Compound 14, 3-ethyl-4-(7-fluoro-3-(4-(1-(3-hydroxypropyl)-1,2,3,6-tetrahydropyridin-4-yl)-1H-imidazol-2-yl)-1H-indazol-6-yl)phenol]
IC50 [1]: 10 to 31.6 nM | Ki (TYK2): 1 to 10 nM | Ki (JAK3): 0.1 to 1 nM | Lung Tissue AUC(0-24) [2]: C (C denotes a value between 9 and 50) | Lung Tissue:Plasma AUC ratio [2]: C (C denotes a ratio between 100 and 200) | AUC(0-t) [2]: < 500 ng·h/mL | Ki (JAK1): 0.1 to 1 nM
